Data published in patent US5607926A, “Cephalosporin antibiotics” (Microcide Pharmaceuticals, Inc., priority 1995, dated 1997).
Values after ≈ are worked out from the molar mass of the structure shown. Read-outs that look alike come from different tables or passages of the source.

Key:
S. aureus ATCC 25923 = test: In vitro antibacterial evaluation, MIC by agar dilution, S. aureus ATCC 25923; type: cell-based
Procedure, shortened: (§1)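 NCCLS agar dilution; Mueller-Hinton agar, 2-fold series 128 to ≤0.25 μg/mL, duplicates. Inoculum ~10^4 cfu/spot from 4-6 h log-phase broth culture. 35°-36° C, 16-20 h; MIC = lowest concentration with no growth.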

[1] = system: X. maltophilia ATCC 13637; test: In vitro antibacterial evaluation, MIC by agar dilution, X. maltophilia ATCC 13637; type: cell-based; conditions: Stenotrophomonas maltophilia, ATCC13637
Experimental: (§2) The compounds of the invention were evaluated against several β-lactamresistant bacteria strains by determining the minimum inhibitory concentration (MIC, μg/ml) of each compound with respect to each strain. The MIC, the lowest concentration of antibiotic which inhibits growth of the test organism, was determined by the agar dilution method.
(§3) To determine the MIC for bacterial isolates, the test compound was incorporated in a series of two-fold dilutions into liquified Mueller-Hinton agar. Upon solidification, a number of different bacterial strains were spot inoculated with a replicating device onto the agar surface. […] The procedures used in these studies have been standardized by the National Committee for Clinical Laboratory Standards (NCCLS), as per the NCCLS publication entitled METHODS FOR DILUTION ANTIMICROBIAL SUSCEPTIBILITY TESTS (1991), which is incorporated herein by reference.
(§4) Aliquots of antimicrobial agents were prepared in phosphate buffered saline (PBS) at pH 7.2. Tween 20 or DMSO was used as a solubilizing vehicle as needed. Standard methods of vortexing, sonicating and gentle heat were used to facilitate solubilizing the test agent. Typically, the concentration of the stock solution was 10× that of the highest drug concentration tested. A 1.28 mg/mL stock solution was used with a subsequent highest working concentration of 128 μg/mL. Serial two-fold dilutions were done through ≤0.25 μg/mL. Each drug level was tested in duplicate. Two-fold drug dilutions were done in sterile 50 mL tubes with a final drug volume of 5 mL. Upon the addition of 45 mL of molten agar, a 10-fold dilution resulted. Two, 25 mL. plates were then poured into 15×150 mm square Petri plates with grids and allowed to harden.
(§5) A control plate with a reference drug, either cefotaxime, vancomycin or imipenem, was used as the positive growth control. Stock concentrations of reference antibiotics were prepared and frozen at -80° C. Upon preparation, the control plates were sealed and stored in the refrigerator for up to 1 week prior to use; however, imipenem control plates had to be prepared just prior to use. All test plates were used within 24 hours of preparation.
(§6) Satisfactory results were obtained where the inoculum contained about 10^4 colony forming units (cfu) ±0.5 logs. Starting with pure cultures of the test isolates on agar plates, a few isolated colonies were transferred to a tube of nutrient broth and allowed to grow 4-6 hours at 35°-36° C. to reach log-phase growth. Dropwise addition of the broth culture to PBS was done to match a 0.5 McFarland turbidity standard equal to 10^8 cfu/mL. This was further diluted ten-fold in PBS to reach a working inoculum concentration of 10^7 cfu/mL. When 1 μL of the working inoculum was applied to the agar surface a concentration of about 10^4 cfu per spot was obtained.
(§7) Disposable sterile 1 μL loops were used to inoculate test plates, with each isolate in a designated grid on the agar plate. An alternate method of inoculation involved the use of a replica plater, a device with 48 steel pins allowing the simultaneous inoculation of multiple isolates. After the spots had dried, the plates were incubated at 35°-36° C. for 16-20 hours. Endpoints were assessed as the minimum inhibitory concentration (MIC) of antimicrobial agent.

P. aeruginosa ATCC 27853 = test: In vitro antibacterial evaluation, MIC by agar dilution, P. aeruginosa ATCC 27853; type: cell-based
Procedure, shortened: as §1

[2] = system: S. aureus Col8A (Meth^S)(lac^-); test: In vitro antibacterial evaluation, MIC by agar dilution, S. aureus Col8A; type: cell-based
Procedure, shortened: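 Log-phase isolates were spot-inoculated at about 10^4 cfu onto Mueller-Hinton agar carrying duplicate two-fold compound levels, 128 μg/mL to ≤0.25 μg/mL, following NCCLS (1991). Plates were read after 16-20 h at 35°-36° C. The lowest growth-inhibiting concentration gave the MIC (μg/ml).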

[3] = system: S. aureus 76 (Meth^R)(lac^+); test: In vitro antibacterial evaluation, MIC by agar dilution, S. aureus 76; type: cell-based
Procedure, shortened: as §1

[4] = system: S. aureus Col (Meth^R)(lac^-); test: In vitro antibacterial evaluation, MIC by agar dilution, S. aureus Col; type: cell-based
Experimental: as §2, §3, §4, §5, §6, §7
The novel agents of this invention are notable for their enhanced activity against S. aureus Col and Enterococci (E. faecium and E. faecalis). […]

E. faecalis ATCC 29212 = test: In vitro antibacterial evaluation, MIC by agar dilution, E. faecalis ATCC 29212; type: cell-based; conditions: E. faecalis ATCC 29212
Procedure, shortened: as §1

E. coli ATCC 25922 = test: In vitro antibacterial evaluation, MIC by agar dilution, E. coli ATCC 25922; type: cell-based
Procedure, shortened: as §1

S. haemolyticus (Meth^R) = test: In vitro antibacterial evaluation, MIC by agar dilution, S. haemolyticus; type: cell-based
Procedure, shortened: as §1

[5] = system: S. epidermidis ATCC 31432; test: In vitro antibacterial evaluation, MIC by agar dilution, S. epidermidis ATCC 31432; type: cell-based
Procedure, shortened: as §1

S. aureus ATCC 29213 = test: In vitro antibacterial evaluation, MIC by agar dilution, S. aureus ATCC 29213; type: cell-based; conditions: Staphylococcus aureus, ATCC29213
Procedure, shortened: as §1

E. faecium ATCC 35667 = test: In vitro antibacterial evaluation, MIC by agar dilution, E. faecium ATCC 35667; type: cell-based
Procedure, shortened: as §1

[6] = system: Enterococci (E. faecium and E. faecalis); test: In vitro antibacterial evaluation, Enterococci (E. faecium and E. faecalis); type: cell-based
Experimental: as §2, §3
Aliquots of antimicrobial agents were prepared in phosphate buffered saline (PBS) at pH 7.2. Tween 20 or DMSO was used as a solubilizing vehicle as needed. Standard methods of vortexing, sonicating and gentle heat were used to facilitate solubilizing the test agent. […]
Disposable sterile 1 μL loops were used to inoculate test plates, with each isolate in a designated grid on the agar plate. […] Endpoints were assessed as the minimum inhibitory concentration (MIC) of antimicrobial agent. […]

MRSA strains = conditions: background art; cited from earlier work
[7] = Staphylococcus aureus, ATCC25923
[8] = Pseudomonas aeruginosa, ATCC27853, read-out: MIC
[9] = Staphylococcus aureus, read-out: MIC
[10] = Enterococcus faecalis, ATCC29212, read-out: MIC
[11] = Escherichia coli, ATCC25922, read-out: MIC
[12] = Staphylococcus haemolyticus, read-out: MIC
[13] = Staphylococcus epidermidis, ATCC31432
[14] = Enterococcus faecium, ATCC35667, read-out: MIC
[15] = Staphylococcus aureus, ATCC25923, S. aureus ATCC 25923, read-out: MIC
[16] = Staphylococcus epidermidis, ATCC31432, S. epidermidis ATCC 31432, read-out: MIC

**Q.** With `O=C(Cc1ccccc1)N[C@@H]1C(=O)N2C(C(=O)O)=C(Sc3ccccc3I)CS[C@H]12` [Cmpd 6, (7R)-7-[(Phenylacetyl)amino]-3-(o-iodophenylthio)-3-cephem-4-carboxylic acid] as the compound, how does the MIC (S. aureus ATCC 25923; [7]) read?
**A.** < 0.015 mg/L

**Q.** And the MIC [1]?
**A.** > 32 mg/L

**Q.** What about the MIC (P. aeruginosa ATCC 27853; [8]) of the same compound?
**A.** > 32 mg/L

**Q.** What about the MIC ([2]; Staphylococcus aureus) of the same compound?
**A.** < 0.015 mg/L

**Q.** And the MIC [3, 9]?
**A.** 1 mg/L (≈ 1.81 µM)

**Q.** And the “activity against S. aureus Col, S. aureus Col 8A and Enterococci” value ([4]; S. aureus Col)?
**A.** broad activity against both S. aureus Col and S. aureus Col 8A, as well as Enterococci

**Q.** And the MIC (E. faecalis ATCC 29212; [10])?
**A.** 0.5 mg/L (≈ 0.905 µM)

**Q.** And the MIC (E. coli ATCC 25922; [11])?
**A.** > 32 mg/L

**Q.** What about the MIC (S. haemolyticus (Meth^R); [12]) of the same compound?
**A.** 4 mg/L (≈ 7.24 µM)

**Q.** And the MIC [5, 13]?
**A.** < 0.015 mg/L

**Q.** What about the MIC (S. aureus ATCC 29213) of the same compound?
**A.** < 0.015 mg/L

**Q.** What about the MIC (E. faecium ATCC 35667; [14]) of the same compound?
**A.** 0.5 mg/L (≈ 0.905 µM)

**Q.** What does the source list for `O=C(Cc1ccccc1)N[C@@H]1C(=O)N2C(C(=O)O)=C(Sc3ccccc3-c3ccccc3)CS[C@H]12` [Cmpd 9, (7R)-7-((Phenylacetyl)amino]-3-(2-biphenylthio)-3-cephem-4-carboxylic acid]?
**A.** MIC (S. aureus ATCC 25923; [15]): 0.125 mg/L (≈ 0.249 µM); MIC [1]: > 32 mg/L; MIC (P. aeruginosa ATCC 27853; [8]): > 32 mg/L; MIC ([2]; Staphylococcus aureus): 0.25 mg/L (≈ 0.497 µM); MIC [3, 9]: 8 mg/L (≈ 15.9 µM); activity against S. aureus Col, S. aureus Col 8A and Enterococci ([4]; S. aureus Col): broad activity against both S. aureus Col and S. aureus Col 8A, as well as Enterococci; MIC (E. faecalis ATCC 29212; [10]): 4 mg/L (≈ 7.96 µM); MIC (E. coli ATCC 25922; [11]): > 32 mg/L; MIC (S. haemolyticus (Meth^R); [12]): 0.125 mg/L (≈ 0.249 µM); MIC [5, 16]: 0.125 mg/L (≈ 0.249 µM); MIC (S. aureus ATCC 29213): 0.25 mg/L (≈ 0.497 µM); MIC (E. faecium ATCC 35667; [14]): 2 mg/L (≈ 3.98 µM)

**Q.** Which results are given for `O=C(Cc1ccccc1)N[C@@H]1C(=O)N2C(C(=O)O)=C(SCc3ccc(-c4ccccc4)cc3)CS[C@H]12` [Cmpd 12, (7R)-7-[(Phenylacetyl)amino]-3-(4-biphenylmethylthio)-3-cephem-4-carboxylic acid]?
**A.** activity against enterococci [6]: potent activity against enterococci; MIC (S. aureus ATCC 25923; [15]): < 0.06 mg/L; MIC [1]: > 32 mg/L; MIC (P. aeruginosa ATCC 27853; [8]): > 32 mg/L; MIC ([2]; Staphylococcus aureus): < 0.06 mg/L; activity against S. aureus Col ([4]; S. aureus Col): lacking activity against S. aureus Col; MIC (E. faecalis ATCC 29212; [10]): 4 mg/L (≈ 7.74 µM); MIC (E. coli ATCC 25922; [11]): > 32 mg/L; MIC [5, 16]: < 0.06 mg/L; MIC (S. aureus ATCC 29213; S. aureus ATCC 29213, read-out: MIC): < 0.06 mg/L

**Q.** For `N=C(N)SCc1ccc(SC2=C(C(=O)O)N3C(=O)[C@@H](NC(=O)Cc4ccccc4)[C@H]3SC2)c(I)c1` [Cmpd 58, (7R)-7-[(Phenylacetyl)amino]-3-(4-isothiouroniummethyl-2-iodophenylthio)-3-cephem-4-carboxylic acid], which MIC (S. aureus ATCC 25923; [7]) is on record?
**A.** < 0.25 mg/L

**Q.** What about the MIC (P. aeruginosa ATCC 27853; [8]) of the same compound?
**A.** > 32 mg/L

**Q.** And the MIC ([2]; Staphylococcus aureus)?
**A.** < 0.25 mg/L

**Q.** What about the MIC [3, 9] of the same compound?
**A.** 4 mg/L (≈ 6.24 µM)

**Q.** And the MIC ([4]; Staphylococcus aureus)?
**A.** < 0.25 mg/L

**Q.** And the MIC (E. faecalis ATCC 29212; [10])?
**A.** 1 mg/L (≈ 1.56 µM)

**Q.** What about the MIC (E. coli ATCC 25922; [11]) of the same compound?
**A.** 32 mg/L (≈ 50 µM)

**Q.** What about the MIC (S. haemolyticus (Meth^R); [12]) of the same compound?
**A.** 4 mg/L (≈ 6.24 µM)

**Q.** What about the MIC [5, 13] of the same compound?
**A.** < 0.25 mg/L

**Q.** And the MIC (E. faecium ATCC 35667; [14])?
**A.** 0.5 mg/L (≈ 0.781 µM)

**Q.** For `C[C@@H](O)[C@H]1C(=O)N2C(C(=O)O)=C(SCCN=CN)C[C@H]12` [imipenem], which “activity against MRSA strains” value (MRSA strains) is on record?
**A.** active against a few MRSA strains

**Q.** For “(7R)-7-[(Phenylacetyl)amino]-3-(2,3-dihydro-2,2-dimethylbenzofuran-7-yl)-3-cephem-4-carboxylic acid [Cmpd 55]”, which MIC (S. aureus ATCC 25923; S. aureus ATCC 25923) is on record?
**A.** < 0.25 mg/L

**Q.** What about the MIC (P. aeruginosa ATCC 27853) of the same compound?
**A.** > 32 mg/L

**Q.** What about the MIC ([2]; S. aureus Col8A (Meth^S)(lac^-), lacks PBP2a) of the same compound?
**A.** < 0.25 mg/L

**Q.** And the MIC [3]?
**A.** 16 mg/L

**Q.** What about the MIC ([4]; S. aureus Col (Meth^R)(lac^-), high-level PBP2a producer) of the same compound?
**A.** 4 mg/L

**Q.** And the MIC (E. faecalis ATCC 29212)?
**A.** 16 mg/L

**Q.** What about the MIC (E. coli ATCC 25922) of the same compound?
**A.** > 32 mg/L

**Q.** What about the MIC (S. haemolyticus (Meth^R)) of the same compound?
**A.** 16 mg/L

**Q.** And the MIC ([5]; S. epidermidis ATCC 31432)?
**A.** < 0.25 mg/L

**Q.** And the MIC (E. faecium ATCC 35667)?
**A.** 8 mg/L
